{"source": "patent US20240336574A1", "about": "(LATIGO BIOTHERAPEUTICS, INC., priority 2021, published 2024)", "biological_target": "T1, recombinant human NaV1.8 stably transfected HEK cells (Homo sapiens, UniProt Q9Y5Y9)", "T1 construct": "expressed in transfected cells; host or cells: HEK cells, stably transfected", "T1 sequence (Q9Y5Y9 whole entry)": "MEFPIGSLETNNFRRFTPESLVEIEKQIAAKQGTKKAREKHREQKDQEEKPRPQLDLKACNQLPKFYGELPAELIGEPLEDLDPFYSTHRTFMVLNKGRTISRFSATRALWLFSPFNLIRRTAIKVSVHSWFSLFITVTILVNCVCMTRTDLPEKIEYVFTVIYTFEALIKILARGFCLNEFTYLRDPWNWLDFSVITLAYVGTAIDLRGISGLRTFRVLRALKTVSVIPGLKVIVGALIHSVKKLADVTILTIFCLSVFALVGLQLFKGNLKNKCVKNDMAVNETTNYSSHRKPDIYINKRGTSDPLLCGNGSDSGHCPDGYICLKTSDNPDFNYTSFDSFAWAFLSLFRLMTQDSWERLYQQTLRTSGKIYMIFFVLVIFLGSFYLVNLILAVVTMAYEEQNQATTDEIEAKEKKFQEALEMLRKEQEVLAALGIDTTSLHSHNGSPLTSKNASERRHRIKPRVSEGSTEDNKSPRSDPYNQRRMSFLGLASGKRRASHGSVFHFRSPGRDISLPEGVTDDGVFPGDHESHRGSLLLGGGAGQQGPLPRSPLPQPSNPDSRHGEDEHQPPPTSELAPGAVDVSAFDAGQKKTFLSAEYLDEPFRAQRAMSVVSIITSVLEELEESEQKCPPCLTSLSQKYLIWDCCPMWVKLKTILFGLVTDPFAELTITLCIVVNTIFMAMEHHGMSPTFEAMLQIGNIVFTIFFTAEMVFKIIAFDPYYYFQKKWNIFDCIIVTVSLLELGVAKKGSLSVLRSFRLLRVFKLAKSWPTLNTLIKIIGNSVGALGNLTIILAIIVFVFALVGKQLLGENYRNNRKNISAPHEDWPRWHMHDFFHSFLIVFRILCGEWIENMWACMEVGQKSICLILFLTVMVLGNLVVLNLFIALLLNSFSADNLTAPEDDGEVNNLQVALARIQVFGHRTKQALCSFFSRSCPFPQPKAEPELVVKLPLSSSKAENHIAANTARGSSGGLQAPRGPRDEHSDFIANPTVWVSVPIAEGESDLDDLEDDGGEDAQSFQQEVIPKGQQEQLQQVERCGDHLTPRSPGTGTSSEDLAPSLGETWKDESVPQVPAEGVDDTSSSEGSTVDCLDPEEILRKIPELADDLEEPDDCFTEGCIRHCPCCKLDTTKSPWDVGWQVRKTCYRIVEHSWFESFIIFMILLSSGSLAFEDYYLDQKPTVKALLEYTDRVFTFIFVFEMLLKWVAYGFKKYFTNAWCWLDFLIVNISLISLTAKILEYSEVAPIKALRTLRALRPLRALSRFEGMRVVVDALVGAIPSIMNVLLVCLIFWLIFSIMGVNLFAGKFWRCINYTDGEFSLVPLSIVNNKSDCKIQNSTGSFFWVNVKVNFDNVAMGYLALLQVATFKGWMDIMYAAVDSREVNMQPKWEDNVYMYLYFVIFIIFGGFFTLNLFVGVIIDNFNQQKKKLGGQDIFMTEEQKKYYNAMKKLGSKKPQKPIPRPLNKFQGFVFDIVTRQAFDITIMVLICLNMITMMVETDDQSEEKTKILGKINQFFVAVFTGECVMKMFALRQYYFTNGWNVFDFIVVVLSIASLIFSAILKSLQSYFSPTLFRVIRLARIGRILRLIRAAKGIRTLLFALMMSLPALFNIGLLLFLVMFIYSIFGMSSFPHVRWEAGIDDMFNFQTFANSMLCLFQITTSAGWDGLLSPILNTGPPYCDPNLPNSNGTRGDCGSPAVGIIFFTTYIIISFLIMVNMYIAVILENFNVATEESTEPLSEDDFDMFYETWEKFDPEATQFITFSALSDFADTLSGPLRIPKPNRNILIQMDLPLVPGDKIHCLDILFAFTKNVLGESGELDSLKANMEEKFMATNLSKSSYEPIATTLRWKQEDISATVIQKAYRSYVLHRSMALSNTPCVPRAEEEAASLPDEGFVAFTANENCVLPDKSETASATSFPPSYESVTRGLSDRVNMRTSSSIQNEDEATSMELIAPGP", "assay": "Compound profiling on NaV1.8, human NaV1.8 cell line, SyncroPatch384PE automated patch clamp assay (Example 102, first set of compounds, Table 16)", "type": "cell-based", "conditions": "human NaV1.8 HEK cells, Table 16 (first set of compounds)", "in_short": "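IC50s come from two read-outs: resting-state block (P1, 10 mV step from −120 mV) and inactivated-state block (P2, after 10 s at −40 mV), scaled between DMSO and 250 μM tetracaine. Compounds (20–0.001 μM final, 1:3 steps) were applied for 5 min, 15 s sweeps. Cells kept at 30 °C the day before.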", "key": {"[1]": {"conditions": "inactivated state block (P2 measurement), read-out: P2IC50"}, "[2]": {"conditions": "resting state block (P1 measurement), read-out: P1IC50"}}, "note": "Read-outs that look alike come from different tables or passages of the source."}
{"smiles": "Cc1cc(F)ccc1Oc1ncc(C(F)(F)F)cc1C(=O)Nc1cccc([S@@](C)(=O)=NC(=O)CN(C)C(=O)OC(C)(C)C)c1", "note": "[Compound 1719, tert-butyl (R)-(2-(((3-(2-(4-fluoro-2-methylphenoxy)-5-(trifluoromethyl)nicotinamido)phenyl)(methyl)(oxo)-λ^6-sulfaneylidene)amino)-2-oxoethyl)(methyl)carbamate]", "values": [{"measurement": "IC50", "setting": "[1]", "result": "≤ 20", "unit": "nM"}, {"measurement": "IC50", "setting": "[2]", "result": "≤ 20", "unit": "nM"}]}
{"smiles": "COc1ccc(Oc2nnc(C(F)(F)F)c(C)c2C(=O)Nc2cccc(S(C)(=N)=O)c2)c(C)c1F", "note": "(single isomer, unassigned) [Compound 1505, 3-(3-fluoro-4-methoxy-2-methylphenoxy)-N-{3-[imino(methyl)oxo-λ^6-sulfanyl]phenyl}-5-methyl-6-(trifluoromethyl)pyridazine-4-carboxamide]", "values": [{"measurement": "IC50", "setting": "[1]", "result": "≤ 20", "unit": "nM"}, {"measurement": "IC50", "setting": "[2]", "result": "≤ 20", "unit": "nM"}]}
{"smiles": "Cc1nc(F)ccc1Oc1ncc(C(F)(F)F)cc1C(=O)Nc1cccc([S@@](C)(=N)=O)c1", "note": "(single isomer, unassigned) [Compound 1594]", "values": [{"measurement": "IC50", "setting": "[1]", "result": "40 to 200", "unit": "nM"}, {"measurement": "IC50", "setting": "[2]", "result": "40 to 200", "unit": "nM"}]}
{"smiles": "COc1cc(Cl)ccc1Oc1nnc(C(F)(F)F)c(C)c1C(=O)Nc1cccc(S(C)(=N)=O)c1", "note": "(single isomer, unassigned) [Compound 1482, 3-(4-chloro-2-methoxyphenoxy)-5-methyl-N-(3-(S-methylsulfonimidoyl)phenyl)-6-(trifluoromethyl)pyridazine-4-carboxamide]", "values": [{"measurement": "IC50", "setting": "[2]", "result": "≤ 20", "unit": "nM"}]}
{"smiles": "Cc1cc(F)ccc1Oc1nnc(C(F)(F)F)c(-c2ccccc2)c1C(=O)Nc1cccc([S@@](C)(=N)=O)c1", "note": "[Compound 1520, (S)-3-(4-fluoro-2-methylphenoxy)-N-(3-(S-methylsulfonimidoyl)phenyl)-5-phenyl-6-(trifluoromethyl)pyridazine-4-carboxamide]", "values": [{"measurement": "IC50", "setting": "[1]", "result": "200 to 500", "unit": "nM"}, {"measurement": "IC50", "setting": "[2]", "result": "200 to 500", "unit": "nM"}]}
{"smiles": "COc1nc(C)ccc1Oc1ncc(C(F)(F)F)cc1C(=O)Nc1cccc(S(C)(=O)=O)c1", "note": "[Compound 1608]", "values": [{"measurement": "IC50", "setting": "[1]", "result": "≤ 20", "unit": "nM"}, {"measurement": "IC50", "setting": "[2]", "result": "≤ 20", "unit": "nM"}]}
{"smiles": "Cc1nc(C#N)ccc1Oc1ncc(C(F)(F)F)cc1C(=O)Nc1cccc(S(C)(=N)=O)c1", "note": "(stereo not drawn) [Compound 1701]", "values": [{"measurement": "IC50", "setting": "[1]", "result": "20 to 40", "unit": "nM"}, {"measurement": "IC50", "setting": "[2]", "result": "20 to 40", "unit": "nM"}]}
{"smiles": "CS(=O)(=O)c1cccc(NC(=O)c2cc(C(F)(F)F)cnc2OCC2CC2)c1", "note": "[Compound 1602]", "values": [{"measurement": "IC50", "setting": "[1]", "result": "200 to 500", "unit": "nM"}, {"measurement": "IC50", "setting": "[2]", "result": "200 to 500", "unit": "nM"}]}
{"smiles": "CS(=O)(=O)c1cccc(NC(=O)c2cc(C(F)(F)F)cnc2OCC(F)F)c1", "note": "[Compound 1663]", "values": [{"measurement": "IC50", "setting": "[1]", "result": "200 to 500", "unit": "nM"}, {"measurement": "IC50", "setting": "[2]", "result": "200 to 500", "unit": "nM"}]}
{"smiles": "CS(=O)(=O)c1cccc(NC(=O)c2cc(C(F)(F)F)cnc2Oc2cccn3ccnc23)c1", "note": "[Compound 1599]", "values": [{"measurement": "IC50", "setting": "[1]", "result": "200 to 500", "unit": "nM"}, {"measurement": "IC50", "setting": "[2]", "result": "200 to 500", "unit": "nM"}]}
{"smiles": "N#CC1CC(Oc2ncc(C(F)(F)F)cc2C(=O)Nc2ccc(C(N)=O)cc2)C1", "note": "(mixture of isomers) [Compound 1671]", "values": [{"measurement": "IC50", "setting": "[1]", "result": "200 to 500", "unit": "nM"}, {"measurement": "IC50", "setting": "[2]", "result": "200 to 500", "unit": "nM"}]}
{"smiles": "Cc1cc(C(F)(F)F)ccc1Oc1ncc(C(F)(F)F)cc1C(=O)Nc1cccc(S(C)(=O)=O)c1", "note": "[Compound 1595]", "values": [{"measurement": "IC50", "setting": "[1]", "result": "≤ 20", "unit": "nM"}, {"measurement": "IC50", "setting": "[2]", "result": "20 to 40", "unit": "nM"}]}
{"smiles": "COc1cc(C#N)ccc1Oc1nnc(-c2ccc(C)cc2)c(C)c1C(=O)Nc1cccc([S@](C)(=N)=O)c1", "note": "[Compound 1529, 3-(4-cyano-2-methoxyphenoxy)-N-{3-[(R)-imino(methyl)oxo-λ6-sulfanyl]phenyl}-5-methyl-6-(4-methylphenyl)pyridazine-4-carboxamide]", "values": [{"measurement": "IC50", "setting": "[1]", "result": "≤ 20", "unit": "nM"}, {"measurement": "IC50", "setting": "[2]", "result": "≤ 20", "unit": "nM"}]}
{"smiles": "CSc1cccc(NC(=O)c2c(Oc3ccc(C#N)cc3C)nnc(C(F)(F)F)c2C)c1", "note": "[Compound 14, 3-(4-Cyano-2-methylphenoxy)-5-methyl-N-[3-(methylsulfanyl)phenyl]-6-(trifluoromethyl)pyridazine-4-carboxamide]", "values": [{"measurement": "IC50", "setting": "[1]", "result": "200 to 500", "unit": "nM"}, {"measurement": "IC50", "setting": "[2]", "result": "200 to 500", "unit": "nM"}]}
{"smiles": "COc1cc(C#N)ccc1Oc1nc(C(F)(F)F)nc(C)c1C(=O)Nc1ccc(C(N)=O)cc1", "note": "[Compound 1744, N-(4-carbamoylphenyl)-4-(4-cyano-2-methoxy-phenoxy)-6-methyl-2-(trifluoromethyl)pyrimidine-5-carboxamide]", "values": [{"measurement": "IC50", "setting": "[1]", "result": "40 to 200", "unit": "nM"}, {"measurement": "IC50", "setting": "[2]", "result": "40 to 200", "unit": "nM"}]}
{"smiles": "COc1ccc(Oc2nnc(C(F)(F)F)c(C)c2C(=O)Nc2cccc(S(C)(=O)=O)c2)c(C)c1F", "note": "[Compound 1427]", "values": [{"measurement": "IC50", "setting": "[1]", "result": "≤ 20", "unit": "nM"}, {"measurement": "IC50", "setting": "[2]", "result": "≤ 20", "unit": "nM"}]}
{"smiles": "Cc1ccc(Oc2nnc(C(F)(F)F)c(C)c2C(=O)Nc2cccc(S(C)(=N)=O)c2)c(C)n1", "note": "(single isomer, unassigned) [Compound 1484, 3-[(2,6-dimethylpyridin-3-yl)oxy]-N-{3-[imino(methyl)oxo-λ^6-sulfanyl]phenyl}-5-methyl-6-(trifluoromethyl)pyridazine-4-carboxamide]", "values": [{"measurement": "IC50", "setting": "[1]", "result": "200 to 500", "unit": "nM"}, {"measurement": "IC50", "setting": "[2]", "result": "200 to 500", "unit": "nM"}]}
{"smiles": "Cc1cc(F)ccc1Oc1ncc(Br)c(C)c1C(=O)Nc1cccc([S@@](C)(=N)=O)c1", "note": "[Compound 1728, 5-bromo-2-(4-fluoro-2-methylphenoxy)-N-{3-[(S)-imino(methyl)oxo-λ^6-sulfanyl]phenyl}-4-methylpyridine-3-carboxamide]", "values": [{"measurement": "IC50", "setting": "[1]", "result": "≤ 20", "unit": "nM"}, {"measurement": "IC50", "setting": "[2]", "result": "≤ 20", "unit": "nM"}]}
{"smiles": "CS(=N)(=O)c1cccc(NC(=O)c2cc(C(F)(F)F)cnc2Oc2ccc(OC(F)F)c(F)c2)c1", "note": "(stereo not drawn) [Compound 1644]", "values": [{"measurement": "IC50", "setting": "[1]", "result": "≤ 20", "unit": "nM"}, {"measurement": "IC50", "setting": "[2]", "result": "≤ 20", "unit": "nM"}]}
{"smiles": "CS(=N)(=O)c1cccc(NC(=O)c2cc(C(F)(F)F)cnc2OC2CC3(C2)CC(F)(F)C3)c1", "note": "(stereo not drawn) [Compound 1632]", "values": [{"measurement": "IC50", "setting": "[1]", "result": "200 to 500", "unit": "nM"}, {"measurement": "IC50", "setting": "[2]", "result": "200 to 500", "unit": "nM"}]}
{"smiles": "COc1c(Oc2nnc(C(F)(F)F)c(C)c2C(=O)Nc2cccc(S(C)(=N)=O)c2)ccc(F)c1F", "note": "(stereo not drawn) [Compound 23]", "values": [{"measurement": "IC50", "setting": "[1]", "result": "20 to 40", "unit": "nM"}, {"measurement": "IC50", "setting": "[2]", "result": "≤ 20", "unit": "nM"}]}
{"smiles": "Cc1cc(F)ccc1Oc1nnc(C(F)(F)F)c(N2CCOCC2)c1C(=O)Nc1cccc([S@@](C)(=N)=O)c1", "note": "[Compound 1524, (S)-3-(4-fluoro-2-methylphenoxy)-N-(3-(S-methylsulfonimidoyl)phenyl)-5-morpholino-6-(trifluoromethyl)pyridazine-4-carboxamide]", "values": [{"measurement": "IC50", "setting": "[1]", "result": "200 to 500", "unit": "nM"}, {"measurement": "IC50", "setting": "[2]", "result": "200 to 500", "unit": "nM"}]}
{"smiles": "COc1cc(C#N)ccc1Oc1nnc(-c2ccc(C)cn2)c(C)c1C(=O)Nc1cccc(S(C)(=N)=O)c1", "note": "(stereo not drawn) [Compound 1464, 3-(4-cyano-2-methoxy-phenoxy)-5-methyl-6-(5-methyl-2-pyridyl)-N-[3-(methylsulfonimidoyl)phenyl]pyridazine-4-carboxamide]", "values": [{"measurement": "IC50", "setting": "[1]", "result": "200 to 500", "unit": "nM"}, {"measurement": "IC50", "setting": "[2]", "result": "200 to 500", "unit": "nM"}]}
{"smiles": "COC(=O)C12CC(NC(=O)c3cc(C(F)(F)F)cnc3Oc3ccc(C#N)cc3OC)(C1)C2", "note": "[Compound 1678]", "values": [{"measurement": "IC50", "setting": "[1]", "result": "200 to 500", "unit": "nM"}, {"measurement": "IC50", "setting": "[2]", "result": "200 to 500", "unit": "nM"}]}
{"smiles": "Cc1c(C(F)(F)F)nnc(Oc2ccc(OC(C)C)c(F)c2F)c1C(=O)Nc1cccc(C(N)=O)c1", "note": "[Compound 1409]", "values": [{"measurement": "IC50", "setting": "[1]", "result": "≤ 20", "unit": "nM"}, {"measurement": "IC50", "setting": "[2]", "result": "≤ 20", "unit": "nM"}]}
{"smiles": "COc1cc(C#N)ccc1Oc1nnc(-c2cncn2C)c(C)c1C(=O)Nc1cccc(S(C)(=N)=O)c1", "note": "(stereo not drawn) [Compound 1447, 3-(4-cyano-2-methoxy-phenoxy)-5-methyl-6-(3-methylimidazol-4-yl)-N-[3-(methylsulfonimidoyl)phenyl]pyridazine-4-carboxamide]", "values": [{"measurement": "IC50", "setting": "[1]", "result": "20 to 40", "unit": "nM"}, {"measurement": "IC50", "setting": "[2]", "result": "20 to 40", "unit": "nM"}]}
{"smiles": "Cc1c(C(F)(F)F)nnc(Oc2ccc(OC(F)F)c(F)c2F)c1C(=O)Nc1cccc(S(C)(=N)=O)c1", "note": "(single isomer, unassigned) [Compound 1512, 3-[4-(difluoromethoxy)-2,3-difluorophenoxy]-N-{3-[imino(methyl)oxo-λ^6-sulfanyl]phenyl}-5-methyl-6-(trifluoromethyl)pyridazine-4-carboxamide]", "values": [{"measurement": "IC50", "setting": "[2]", "result": "≤ 20", "unit": "nM"}]}
{"smiles": "CS(=N)(=O)c1cccc(NC(=O)c2cc(C(F)(F)F)cnc2Oc2ccc(OC(F)F)nc2)c1", "note": "(stereo not drawn) [Compound 1646]", "values": [{"measurement": "IC50", "setting": "[1]", "result": "40 to 200", "unit": "nM"}, {"measurement": "IC50", "setting": "[2]", "result": "40 to 200", "unit": "nM"}]}
